Experimental data as given in patent EP1591123A1, “USES OF NARINGENIN, NARINGIN AND SALTS THEREOF AS EXPECTORANTS IN THE TREATMENT OF COUGH, AND COMPOSITIONS THEREOF” (Su, Wei-wei, priority 2003, dated 2004).
Where a name gives a salt, the structure may show the parent alone.

What was measured:
NIH mice = assay: Antitussive test of Naringin, spraying with concentrated ammonia liquor (Example 28); format: in vivo; conditions: 0.2 ml/20g of 1.5 mg/ml
Source text: 1.Animals: As the stock animals, totally 130 NIH mice, male, each weighed 18.2~21.7g within ordinary standard. Weigh and number each mice accurately first, then pick out the 120 healthy ones who weighed in range from 18.5~21.0g. Ranked in weigh, they were divided into 8 groups in random with each 15. Set up reference groups of negative and positive, and sample groups of high-dose, mid-dose, low-dose Naringin and sodium Naringinate.
• 1) Blank control group: physiological saline, 0.9% NaCl; • 2) Positive control group: 30 mg dextromethorphan hydrobromide was weighed into a 20ml volumetric flask, and physiological saline was accurately added to the volume to obtain the solution for positive control at concentration of 5mg/ml° • 3) Group of low-dose sample Naringin: Proper amount of Naringin was weighed into a suitable volumetric flask, and physiological saline was added to the volume to obtain the solution at concentration of 0.5mg/ml. • 4) Group of mid-dose sample Naringin: Proper amount of Naringin was weighed into a suitable volumetric flask, and physiological saline was added to the volume to obtain the solution at concentration of 1.5mg/ml. • 5) Group of high-dose sample Naringin: Proper amount of Naringin was weighed into a suitable volumetric flask, and physiological saline was added to the volume to obtain the solution at concentration of 4.5mg/ml. • 6) Group of low-dose sample sodium Naringinate: Proper amount of sodium Naringin was weighed into a suitable volumetric flask, and physiological saline was added to the volume to obtain the solution at concentration of 0.5mg/ml. • 7) Group of mid-dose sample sodium Naringinate: Proper amount of sodium Naringin was weighed into a suitable volumetric flask, and physiological saline was added to the volume to obtain the solution at concentration of 1.5mg/ml. • 8) Group of high-dose sample sodium Naringinate: Proper amount of sodium Naringin was weighed into a suitable volumetric flask, and physiological saline was added to the volume to obtain the solution at concentration of4.5mg/ml.
One hour after intra-gastrointestinal administering for the mice, spray with concentrated ammonia liquor for certain intervals. Immediately the spraying was over, put away the mice outside and observe the tussive action. Mark down the times for which they coughed within 1 minute. Only when they coughed, which was characteristic of compression of abdomen or chest with their mouths open, and making coughing noise, for more than 3 times within a minute, tussive action could be admitted.
Calculate the median effective dose(EDT50) with sequential trials. Work out the amount of R with the formula below. If R is greater than 130%, it means the drug will be effective on antitussive action. If R is greater than 150%, it means the drug will be remarkably effective on antitussive action. The formula is shown as below: R =(EDT50 of the treatmnet)/(EDT50 of the control)× 100% [formula] EDT50=log-1c/n(n for amount of animals, c for summation of rx, r for amount of animals in each group, x for logarithm of the dose (time for spraying) )

mice = assay: Antitussive test of Naringenin, spray by high concentration ammonia (Example 30); format: in vivo; conditions: sample concentration 1.5 mg/ml
Source text: 1. Animal: 120 healthy male mice weighing 19.5-22.1g was grouped into 8 groups random after labeled, which was selected from 130 male mice weighing 19.3-22.6g. Every group was 15 mice. Eight group were set including negative control group, positive control group, high dose group of Naringenin, middle dose group of Naringenin, low dose group of Naringenin, high dose group of sodium salt of Naringenin, middle dose group of sodium salt of Naringenin, low dose group of sodium salt of Naringenin.
• 1) Blank control group: physiological saline, 0.9% NaCl; • 2) Positive control group: 30mg Dextromethorphan Hydrobromide was dissolve into 20 ml physiological saline and the sample concentration was 1.5 mg/ml to obtain the solution for positive control. • 3) low dose group of Naringenin: weighting out the appropriate amount of Naringenin and dissolving it in physiological saline, then the sample concentration was 0.5 mg/ml. • 4) middle dose group of Naringenin: weighting out the appropriate amount of Naringenin and dissolving it in physiological saline, then the sample concentration was 1.5mg/ml. • 5) high dose group of Naringenin: weighting out the appropriate amount of Naringenin and dissolving it in physiological saline, then the sample concentration was 4.5 mg/ml. • 6) low dose group of sodium salt of Naringenin: weighting out the appropriate amount of sodium salt of Naringenin and dissolving it in physiological saline, then the sample concentration was 0.5 mg/ml. • 7) middle dose group of sodium salt of Naringenin: weighting out the appropriate amount of sodium salt of Naringenin and dissolving it in physiological saline, then the sample concentration was 1.5 mg/ml. • 8) high dose group of sodium salt of Naringenin: weighting out the appropriate amount of sodium salt of Naringenin and dissolving it in physiological saline, then the sample concentration was 4.5 mg/ml.
Animals were oral administered, and were sprayed one hour later. After the spray took out the animals and observed the tussive action. Observed the time of tussis in one minutes, if it appeared typical tussis three times in one minutes(shrinking the abdomen muscle or shrinking chest, puffing mouth at the same time, sometimes appearing tussive sound), we consider it "appearing tussis", otherwise "no tussis".
We calculated the spraying time that half of mice were tusisive by sequential method. And calculated the R, the drug was provided with effect of relieve a cough if R>130%. The drug was provided with remarkable effect of relieve a cough if R>150%. Underside is expressions: R=(EDT50 of the treatment)/(EDT50 of the control)× 100% [formula] EDT50=log^-1c/n ('n' is the number of animal, 'c' is the sum of 'rx' value, 'r' is the number of animal in every group, 'x' is the logarithm of dose(namely spray time).)

[1] = EDT50 of the treatment / EDT50 of the control x 100%

COc1ccc2c(c1)[C@]13CCCC[C@@H]1[C@H](C2)N(C)CC3 [Dextromethorphan Hydrobromide, reference compound]
Effect of relieving cough (NIH mice): effective (If R is greater than 130%, it means the drug will be effective on antitussive action)
R Value (NIH mice; [1]): 140.23%
EDT50 (NIH mice; mice, intra-gastrointestinal, ammonia spray 1 hour after dosing): 56.82 s
R Value (mice; [1]): 138.05%
EDT50 (mice; mice, oral, dose 0.2 (mg/20g), spray one hour later): 53.70 s
Effect of relieving cough (mice): effect (the drug was provided with effect of relieve a cough if R>130%)
